In one assay the test system is APP. As to conditions: cited from earlier work; for Aβ: literature.
In another assay the test system is γ-secretase. As to conditions: A2A-AR antagonists; Lu, J. et al.; cited from earlier work.
Assay [1] relates to PS-DKO cells. As to the kind of experiment: Staining of lipid droplets with LipidTox Green. It counts as cell-based, mouse. The conditions noted are these: BI 100 nM, desipramine 10 μM, GW4869 5 μM, 12-16 h, Gleevec 10 μM. The procedure:
Quantification of total cholesterol and cholesteryl esters was performed using the Cholesterol/Cholesteryl Ester Quantitation kit from Calbiochem (428901). Staining of lipid droplets Staining of lipid droplets was performed using HCS LipidTox™ Deep Green neutral lipid stain (Invitrogen H34475) according to the manufacturer's instructions. Lipid droplet staining was quantified using ImageJ. The different values represent the product of the intensity and the area covered by the fluorescent signal above background in every cell examined.
Staining of lipid droplets was performed using HCS LipidTox™ Deep Green neutral lipid stain (Invitrogen H34475) according to the manufacturer's instructions. Lipid droplet staining was quantified using ImageJ. The different values represent the product of the intensity and the area covered by the fluorescent signal above background in every cell examined.

A further assay deals with TRPML1 (Homo sapiens, UniProt Q9GZU1). As to conditions: Shen, D. et al.; cited from earlier work.
The next assay concerns AD mice. As to conditions: cited from earlier work.
Assay [2] relates to PS-DKO cells. Put plainly: Seahorse analysis of mitochondrial respiration (OCR). It counts as cell-based, mouse. As to conditions: BI 100 nM, myriocin 5 μM, TAPI-1 5 μM, 12-16 h, Aβ40:Aβ42 10:1, 6 ng/ml. The procedure:
(§1) Respirometry of cultured cells was performed using the XF24e Extracellular Flux Analyzer (Seahorse Bioscience). Oxygen consumption was measured in basal conditions (Seahorse media with 25 mM glucose and 2 mM pyruvate) and after the sequential addition of 1 μM oligomycin (Complex V inhibitor), 0.75 μM FCCP (uncoupler) and 1 μM rotenone/1 μM antimycin A (Complex I and Complex III inhibitors respectively).
(§2) Respirometry of cultured cells was performed using the XF24e Extracellular Flux Analyzer (Seahorse Bioscience). Oxygen consumption was measured in basal conditions (Seahorse media with 25 mM glucose and 2 mM pyruvate) and after the sequential addition of 1 μM oligomycin (complex V inhibitor), 0.75 μM FCCP (uncoupler), and 1 μM rotenone/1 μM antimycin A (complex I and complex III inhibitors, respectively). All results were averages of five or more biological replicates. Every biological replicate consisted of three technical replicates. For every technical replicate, we plated equal number of cells (25,000 cell/well when MEFs were used, and 50,000 cells/well when human primary fibroblasts were analyzed). The number of cells was also counted after every respirometry assay to correct for cell death. All oxygen consumption (OCR) data were normalized by the number of viable cells or by protein quantity when isolated mitochondria were used.

The subject of the next assay is APP-DKO cells. The assay is described as above. Type of assay: cell-based, mouse. The conditions noted are these: WT and APP-DKO cells, Aβ42 oligomers 0, 5, 10 μM, 24 h, effect only at 10 μM. The procedure:
as §1
To analyze the effect of Aβ addition, a mix of Aβ40/Aβ42 at a ratio 10:1 was added to the cultured cells to a final concentration of 6000 pg/ml for 24 h. For Aβ42 oligomer formation, 5 mM of Aβ42 in DMSO was diluted to 100 μM in ice-cold media, vortexed for 30 seconds, and incubated at 4° C. for 24 h. Aβ42 Oligomers were added to the cultured cells to a final concentration of 5 or 10 μM for 24 h.
as §2
To analyze the effect of Aβ addition, a mix of Aβ40/Aβ42 at a ratio 10:1 was added to the cultured cells to a final concentration of 6,000 pg/ml for 24 h. For Aβ42 oligomer formation, 5 mM of Aβ42 in DMSO was diluted to 100 μM in ice-cold media, vortexed for 30 s, and incubated at 4° C. for 24 h. […]

The test system of assay [3] is WT MEFs and presenilin-mutant (PS-DKO) cells. As to the kind of experiment: Filipin staining of free cholesterol. It counts as cell-based, mouse. As to conditions: presenilin-mutant (PS-DKO) cells; CsA 100 nM; SSO 250 nM. The procedure:
Cells were washed in PBS and fixed in 3% paraformaldehyde at room temperature for 1 h. After washing in PBS three times, samples were incubated in 1.5 mg/ml glycine in 1×PBS to quench the paraformaldehyde and then incubated in 0.05 mg/ml of filipin in PBS/10% FBS for 2 h at room temperature. Free cholesterol signal was visualized in by microscopy and quantified by ImageJ.

The next assay has as its system Aβ42:Aβ40 ratio. As to the kind of experiment: Aβ42:Aβ40 ratio (ELISA). It counts as cell-based. The conditions noted are these: PS-mutant cells, desipramine. The procedure: Detection of Aβ40/Aβ42 levels in cell media was performed by ELISA following manufacturer's instructions (WAKO ELISA kit 294-64701 for Aβ40 and 292-64501 for Aβ42).
Background: An ELISA detects its analyte on a solid surface through an enzyme-linked reagent.

Assay [4] relates to mitochondrial respiratory supercomplexes. As to the kind of experiment: Supercomplex analysis (blue-native gels, in-gel activity and western blot). It counts as cell-based, mouse. Here is the method:
Analysis and quantification of mitochondrial respiratory complexes by western blot and enzymatic in-gel activity were carried out as previously reported (Acin-Perez et al., 2008)
Analysis and quantification of mitochondrial respiratory complexes by Western blot and enzymatic in-gel activity were carried out as described (Acin-Perez et al, 2008).
(Immunoblotting shows a protein as a band on a membrane.)

Assay [5] relates to PS-DKO cells. As to the kind of experiment: Lipidomic analyses of membranes. The conditions noted are these: PS-DKO cells; BI 100 nM or myriocin 5 μM. Type of assay: cell-based, mouse. The procedure:
(§3) Lipid extracts were prepared via chloroform-methanol extraction, spiked with appropriate internal standards, and analyzed using a 6490 Triple Quadrupole LC/MS system (Agilent Technologies, Santa Clara, Calif.) as described previously (6, 7). Glycerophospholipids and sphingolipids were separated with normal-phase HPLC using an Agilent Zorbax Rx-Sil column (inner diameter 2.1×100 mm) under the following conditions: mobile phase A (chloroform:methanol:1 M ammonium hydroxide, 89.9:10:0.1, v/v) and mobile phase B (chloroform:methanol:water:ammonium hydroxide, 55:39.9:5:0.1, v/v); 95% A for 2 min, linear gradient to 30% A over 18 min and held for 3 min, and linear gradient to 95% A over 2 min and held for 6 min. Quantification of lipid species was accomplished using multiple reaction monitoring (MRM) transitions that were developed in earlier studies (6) in conjunction with referencing of appropriate internal standards: ceramide d18:1/17:0 and sphingomyelin d18:1/12:0 (Avanti Polar Lipids, Alabaster, Ala.).
as §3, with “Lipids were extracted from equal amounts of material (30 μg protein/sample). Lipid extracts” for “Lipid extracts”, “described previously (Chan et al., 2012). Glycerophospholipids and” for “described previously (6, 7). Glycerophospholipids and”, “hydroxide, 89.9:10:0.1, v/v/v) and mobile” for “hydroxide, 89.9:10:0.1, v/v) and mobile”, “hydroxide, 55:39.9:5:0.1, v/v/v); 95% A” for “hydroxide, 55:39.9:5:0.1, v/v); 95% A”, “earlier studies (Chan et al., 2012) in conjunction” for “earlier studies (6) in conjunction”, “Alabaster, Ala.). Values are represented as mole fraction with respect to total lipid (% molarity)” for “Alabaster, Ala.).”
Lipids were extracted from equal amounts of material (30 μg protein/sample). Lipid extracts were prepared via chloroform-methanol extraction, spiked with appropriate internal standards, and analyzed using a 6490 Triple Quadrupole LC/MS system (Agilent Technologies, Santa Clara, Calif.) as described previously (Chan et al, 2012). Glycerophospholipids and sphingolipids were separated with normal-phase HPLC using an Agilent Zorbax Rx-Sil column (inner diameter 2.1×100 mm) under the following conditions: mobile phase A (chloroform:methanol:1 M ammonium hydroxide, 89.9:10:0.1, v/v/v) and mobile phase B (chloroform:methanol:water:ammonium hydroxide, 55:39.9:5:0.1, v/v/v/v); 95% A for 2 min, linear gradient to 30% A over 18 min and held for 3 min, and linear gradient to 95% A over 2 min and held for 6 min. Quantification of lipid species was accomplished using multiple reaction monitoring (MRM) transitions that were developed in earlier studies (Chan et al, 2012) in conjunction with referencing of appropriate internal standards: ceramide d18:1/17:0 and sphingomyelin d18:1/12:0 (Avanti Polar Lipids, Alabaster, Ala., USA). Values are represented as mole fraction with respect to total lipid (% molarity). For this, lipid mass (in moles) of any specific lipid is normalized by the total mass (in moles) of all the lipids measured (Chan et al, 2012). In addition, all of our results were further normalized by protein content.

“Also recorded” adds a separate entry of the source. Where a name gives a salt, the structure may show the parent alone.

Sequence of TRPML1 (Q9GZU1 whole entry, species assumed): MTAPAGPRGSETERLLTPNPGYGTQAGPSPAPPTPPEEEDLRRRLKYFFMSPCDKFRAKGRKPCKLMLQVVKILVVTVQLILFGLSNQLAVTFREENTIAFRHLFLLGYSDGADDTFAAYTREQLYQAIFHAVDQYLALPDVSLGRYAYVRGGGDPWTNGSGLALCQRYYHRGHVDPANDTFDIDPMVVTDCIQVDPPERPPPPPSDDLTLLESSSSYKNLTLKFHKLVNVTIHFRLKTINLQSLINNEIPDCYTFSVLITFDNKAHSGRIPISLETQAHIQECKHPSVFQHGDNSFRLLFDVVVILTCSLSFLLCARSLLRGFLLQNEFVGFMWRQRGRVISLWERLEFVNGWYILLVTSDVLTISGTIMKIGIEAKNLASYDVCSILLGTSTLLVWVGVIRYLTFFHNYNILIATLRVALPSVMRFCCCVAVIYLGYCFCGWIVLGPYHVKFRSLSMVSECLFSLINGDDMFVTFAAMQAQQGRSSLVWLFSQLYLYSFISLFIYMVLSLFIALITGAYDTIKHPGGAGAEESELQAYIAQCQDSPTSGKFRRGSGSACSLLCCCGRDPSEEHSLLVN

Take `CCCCCCCC[C@H](SCCCCCC)C(=O)Nc1c(SC)cc(C)nc1SC` [CP-113,818]: the Aβ entry in the assay on APP is given as “reduces Aβ”.
As for `CC(C)(C)NCC(O)c1cc(Cl)c(N)c(Cl)c1` (centres unmarked) [Clenbuterol], in the assay with APP (Chai, G-s. et al.), the “Thr668p (APP phosphorylated at Thr668)” value is “reduced Thr668p” and the α-secretase result is on record as “increased α-secretase”. In addition, in the assay on APP, the Aβ result is “decreased Aβ”.
With `COCCOc1ccc(N2CCN(CCn3ncc4c3nc(N)n3nc(-c5ccco5)nc43)CC2)cc1` [Preladenant], in the assay with γ-secretase, the Aβ42 entry was “increased Aβ42” and the γ-secretase activity entry is on record as “increased γ-secretase activity”.
As to `O=C(/C=C/c1ccc(/C=C/C(=O)Nc2ccc(C3=NCCN3)cc2)cc1)Nc1ccc(C2=NCCN2)cc1` [GW4869], in the assay with PS-DKO cells [1], the “number of lipid droplets (LDs)” value was “reduced the accumulation of lipid droplets in PS-DKO cells to near-control levels; also recorded: reduced lipid droplet formation”.
As for `CC1CC(C)(C)N(C(=O)CN2C(=O)c3ccccc3C2=O)c2ccccc21` (centres unmarked) [ML-SA1], at TRPML1, the “TRPML1-mediated lysosomal Ca2+ release” value was “enhances TRPML1-mediated lysosomal Ca^2+ release” and the cholesterol entry is recorded as “reduces cholesterol”.
Take `O=C1[C@H](CC[C@H](O)c2ccc(F)cc2)[C@@H](c2ccc(O)cc2)N1c1ccc(F)cc1` [Ezetimibe]: the cognition / memory entry with AD mice is given as “improves memory in AD mice”.
In the case of `CC(C)C[C@H](CC(=O)NO)C(=O)N[C@@H](Cc1ccc2ccccc2c1)C(=O)N[C@@H](C)C(=O)NCCN` [TAPI-1], the “mitochondrial respiration (initial oxygen consumption rate, OCR)” value in the assay with PS-DKO cells [2] is reported as “unaffected”.
Consider `COc1ccc(N2CCOCC2)c2sc(NC(=O)N3CCC(C)(O)CC3)nc12` [Tozadenant], for which, in the assay on γ-secretase, the Aβ42 entry is listed as “increased Aβ42” and the γ-secretase activity result is “increased γ-secretase activity”.
Consider “Aβ42 oligomers: oligomers formed from synthetic Aβ42 peptide, added at 5 or 10 μM”, for which the entries for the “mitochondrial respiration (OCR)” value in the assay on APP-DKO cells and with APP-DKO cells (listed as Aβ oligomers) were “slightly decreased” and “had little effect on respiration”, respectively.
As to `CCCCCCCC/C=C\CCCCCCCC(=O)ON1C(=O)CC(S(=O)(=O)O)C1=O` (centres unmarked) [sulfo-N-succinimidyl oleate], the “free cholesterol levels (filipin staining)” value in assay [3] is recorded as “reduces cholesterol levels in presenilin-mutant cells; also recorded: equally marked reduction in cellular free cholesterol”.
Regarding `CNCCCN1c2ccccc2CCc2ccccc21` [desipramine], the “number of lipid droplets (LDs)” value with PS-DKO cells [1] was “reduced the accumulation of lipid droplets in PS-DKO cells to near-control levels; also recorded: reduced lipid droplet formation”. Further, the “Aβ42:Aβ40 ratio” value was “reduced the Aβ42:Aβ40 ratio” with Aβ42:Aβ40 ratio and “significantly reduced the Aβ42:Aβ40 ratio” with Aβ42:Aβ40 ratio (listed as Desipramine).
Regarding `CCCCCCC(=O)CCCCCC/C=C/C[C@@H](O)[C@H](O)[C@@](N)(CO)C(=O)O` [myriocin], the “activity of supercomplexes I+III+IV, I+III and III+IV (in-gel complex I and IV activity)” value in [4] (mitochondria from PS-DKO cells incubated with BI or myriocin) is given as “rescued”. For the same compound, the “assembly of respiratory supercomplexes (blue-native PAGE western blot)” value in assay [4] (mitochondria from PS-DKO cells, anti-complex I and III antibodies) is “increases the assembly of supercomplexes I+III and I+III+IV”. Besides, in the assay with PS-DKO cells [2], the “mitochondrial respiration (initial oxygen consumption rate, OCR)” value is listed as “reversed the respiratory defect; also recorded: rescued the bioenergetic defect; also recorded: reversed the bioenergetic deficits in these cells”. In addition, in the assay with PS-DKO cells [5], the ceramide levels result is “significant reductions in ceramide content” and the sphingomyelin levels result is “slight decreases in sphingomyelin”.
Take `O=C(O)CCCc1ccccc1` [PBA, phenylbutyric acid]: the “α- and γ-cleavage of APP” value in the assay on APP (reference [1]) is “stimulates both α- and γ-cleavage of APP”. Besides, in the assay on AD mice, the cholesterol defects result is “rescues cholesterol defects”; the cognition / memory result is “rescues cholesterol defects [4-6] and cognition”.
Turning to cyclosporin A, the “free cholesterol levels (filipin staining)” value in [3] is on record as “reduces cholesterol levels in presenilin-mutant cells; also recorded: the increased level of cholesterol seen in PS-mutant cells was reversed”.
As to `Cc1ccc(NC(=O)c2ccc(CN3CCN(C)CC3)cc2)cc1Nc1nccc(-c2cccnc2)n1` [Gleevec, imatinib mesylate], the “number of lipid droplets (LDs)” value in the assay on PS-DKO cells [1] is “significant reduction of LDs”.

(Values after patent publication US11266626B2, “Reduction of ER-MAM-localized APP-C99 and methods of treating alzheimer's disease” (THE TRUSTEES OF COLUMBIA UNIVERSITY IN THE CITY OF NEW YORK, priority 2015, dated 2022).)
